{"source": "patent US20150344843A1", "about": "“DETERGENT TREATED BIOLOGICAL TISSUE WITH LOW RESIDUAL DETERGENT AND METHOD OF PRODUCING THE SAME” (Bacterin International, Inc., priority 2014, published 2015)", "system": "L-929 mouse fibroblast cells", "assay": "MEM endpoint dilution assay for liquids (cytotoxic threshold of SDS)", "assay_type": "cell-based", "parameters": "key to Cytotoxicity Score: 0: Discrete intracytoplasmic granules, no cell lysis, no reduction of cell growth; 1: Not more than 20% of the cells are round, loosely attached, and without intracytoplasmic granules, or show changes in morphology; occasional lysed cells are present; only slight growth inhibition observable; 2: Not more than 50% of the cells are round, devoid of intracytoplasmic granules, no extensive cell lysis; not more than 50% growth inhibition observable; 3: Not more than 70% of the cell layers contain rounded cells or are lysed; cell layers not completely destroyed, but more than 50% growth inhibition observable; 4: Nearly complete or complete destruction of the cell layers", "conditions": "for Cytotoxicity Score: about 24 hours; for Pass/Fail: scores 0-2 Pass, 3-4 Fail per Table 1", "experimental": "To determine the cytotoxic threshold of SDS, an MEM endpoint dilution assay for liquids using L-929 mouse fibroblast cells was performed. Briefly, solutions of Eagle's minimum essential medium with about 5% fetal bovine serum were created with various concentrations of SDS. One mL of the SDS containing medium was placed in a disposable tissue culture labware and a monoloyer of L-929 mouse fibroblasts was placed on top of the media. The cells were incubated for about 24 hours at about 37° C. in a humidified atmosphere of about 5% CO2 in air. The mouse fibroblasts were then […] examined using the semi-quantitative scale defined in Table 1.\nAppropriate positive and negative controls were assessed to ensure the validity of the assay.", "key": {"[1]": {"conditions": "SDS concentration 4 μg/mL (approximate)"}, "[2]": {"conditions": "SDS concentration 8 μg/mL (approximate)"}, "[3]": {"conditions": "SDS concentration 16 μg/mL (approximate)"}, "[4]": {"conditions": "SDS concentration 17 μg/mL (approximate)"}, "[5]": {"conditions": "SDS concentration 20 μg/mL (approximate)"}, "[6]": {"conditions": "SDS concentration 23 μg/mL (approximate)"}, "[7]": {"conditions": "SDS concentration 26 μg/mL (approximate)"}, "[8]": {"conditions": "SDS concentration 29 μg/mL (approximate)"}, "[9]": {"conditions": "SDS concentration 32 μg/mL (approximate)"}}}
{"smiles": "CCCCCCCCCCCCOS(=O)(=O)[O-].[Na+]", "note": "[SDS, sodium dodecyl sulfate]", "values": [{"measurement": "Cytotoxicity Score", "setting": "[1]", "value": 0}, {"measurement": "Pass/Fail", "setting": "[1]", "value": "Pass"}, {"measurement": "Cytotoxicity Score", "setting": "[2]", "value": 0}, {"measurement": "Pass/Fail", "setting": "[2]", "value": "Pass"}, {"measurement": "Cytotoxicity Score", "setting": "[3]", "value": 0}, {"measurement": "Pass/Fail", "setting": "[3]", "value": "Pass"}, {"measurement": "Cytotoxicity Score", "setting": "[4]", "value": 0}, {"measurement": "Pass/Fail", "setting": "[4]", "value": "Pass"}, {"measurement": "Cytotoxicity Score", "setting": "[5]", "value": 0}, {"measurement": "Pass/Fail", "setting": "[5]", "value": "Pass"}, {"measurement": "Cytotoxicity Score", "setting": "[6]", "value": 1}, {"measurement": "Pass/Fail", "setting": "[6]", "value": "Pass"}, {"measurement": "Cytotoxicity Score", "setting": "[7]", "value": 4}, {"measurement": "Pass/Fail", "setting": "[7]", "value": "Fail"}, {"measurement": "Cytotoxicity Score", "setting": "[8]", "value": 4}, {"measurement": "Pass/Fail", "setting": "[8]", "value": "Fail"}, {"measurement": "Cytotoxicity Score", "setting": "[9]", "value": 4}, {"measurement": "Pass/Fail", "setting": "[9]", "value": "Fail"}, {"measurement": "limit of toxicity for SDS, corresponding tissue content", "setting": "converted from μg/mL limit", "value": "86-98 ng of SDS/mg of tissue"}, {"measurement": "SDS content for tissue to be non-cytotoxic", "setting": "threshold from in vitro limit", "value": "less than 86 ng of SDS/mg of tissue"}]}
